Data taken from ChEMBL document CHEMBL5126518, “Quercetin derivatives: Drug design, development, and biological activities, a review” (Eur J Med Chem, 2022).
Values after ≈ are worked out from the molar mass of the structure shown.

Assays:
Format in all cases: functional
Candida albicans [1] = assay: Antibiofilm activity against Candida albicans 475/15 assessed as inhibition of biofilm formation measured after 24 hrs by crystal violet staining based analysis relative to control; design: scale not given: the % may be the effect or the level left
Candida albicans [2] = assay: Antifungal activity against Candida albicans 10/15 assessed as fungal growth inhibition measured after 24 hrs by microdilution assay
Candida albicans [3] = assay: Antifungal activity against Candida albicans 527/14 assessed as fungal growth inhibition measured after 24 hrs by microdilution assay
Candida albicans [4] = assay: Antifungal activity against Candida albicans 475/15 assessed as fungal growth inhibition measured after 24 hrs by microdilution assay
Candida albicans [5] = assay: Antifungal activity against Candida albicans 13/15 assessed as fungal growth inhibition measured after 24 hrs by microdilution assay

MIC (Candida albicans [2]): 37.5 µg/mL (≈ 80.8 µM)
MIC (Candida albicans [3]): 37.5 µg/mL (≈ 80.8 µM)
MIC (Candida albicans [4]): 37.5 µg/mL (≈ 80.8 µM)
MIC (Candida albicans [5]): 37.5 µg/mL (≈ 80.8 µM)
SMILES: O=c1c(O[C@@H]2O[C@H](CO)[C@@H](O)[C@H](O)[C@H]2O)c(-c2ccc(O)c(O)c2)oc2cc(O)cc(O)c12 [ISOQUERCETIN]
Activity (Candida albicans [1]): 76%
